Like-named read-outs stand apart in the source and are kept apart here.
Legend:
[1] = system: UMUC-3 human bladder transitional cell carcinoma cells; assay: In vitro antiproliferative assay, UMUC-3; type: cell-based; conditions: for IC50: UMUC-3, read-out: IC50 ± SD, antiproliferative activity; for SI BALB/3T3/ UMUC-3: IC50 in normal cell line / IC50 in cancer cell line
Experimental: (§1) Cell preparation, in vitro antiproliferative assay, MTT and SRB cytotoxic tests were performed according to literature.

[2] = target: T1, human neutrophil elastase (HNE) (Homo sapiens, UniProt P08246); assay: Fluorometric human neutrophil elastase (HNE) inhibition assay, MOSuc-AAPV-AMC substrate; type: biochemical; conditions: HNE 20 mU/mL, 25 µM substrate, 0.1 M HEPES pH 7.5, 25 °C, triplicate; read-out: IC50 ± SD, elastase inhibitory activity
T1 sequence (P08246 30-267): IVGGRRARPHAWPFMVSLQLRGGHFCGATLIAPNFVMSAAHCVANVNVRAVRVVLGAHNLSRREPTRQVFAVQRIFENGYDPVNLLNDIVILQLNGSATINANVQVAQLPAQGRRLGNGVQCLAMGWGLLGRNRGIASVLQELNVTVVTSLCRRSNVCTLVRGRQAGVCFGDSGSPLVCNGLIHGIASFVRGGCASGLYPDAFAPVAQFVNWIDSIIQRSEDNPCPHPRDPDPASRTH
Experimental: Fluorometric assay for human neutrophil elastase (HNE) inhibition was performed according to the previously presented method with some modifications, using N-methoxysuccinyl-Ala-Ala-Pro-Val-7-amido-4-methyl-coumarin (MOSuc-AAPV-AMC, Calbiochem) as substrate. […] The reaction was carried out in assay buffer containing 0.1 M HEPES (pH 7.5). Briefly, different concentration of tested compounds was incubated with 20 mU/mL of HNE (Bradford) in 25 °C. The reaction was started by addition of 25 µM elastase substrate to final reaction volume 100 µL and monitored for 30 min at 25 °C on a microplate reader (FP-8500 Spectrofluorometer, JASCO, USA) with excitation and emission wavelengths of 380 nm and 440 nm, respectively. By computing the log of inhibitors concentrations versus the percentage of activity, the IC50 values were determined by non-linear regression analysis. Assays were performed in triplicate and data presented as the mean and the standard deviation. Ursolic acid was used as the reference compound.

[3] = system: A549 lung carcinoma cells; assay: In vitro antiproliferative assay, A549; type: cell-based, human; conditions: for IC50: A549, read-out: IC50 ± SD, antiproliferative activity; for SI BALB/3T3/ A549: IC50 in normal cell line / IC50 in cancer cell line
Experimental: as §1

[4] = system: MV4-11 human biphenotypic B myelomonocytic leukemia cells; assay: In vitro antiproliferative assay, MV4-11; type: cell-based; conditions: for IC50: MV4-11, read-out: IC50 ± SD, antiproliferative activity; for SI BALB/3T3/ MV4-11: IC50 in normal cell line / IC50 in cancer cell line
Experimental: as §1

[5] = system: MDA-MB-231 human breast adenocarcinoma cells; assay: In vitro antiproliferative assay, MDA-MB-231; type: cell-based; conditions: for IC50: MDA-MB-231, read-out: IC50 ± SD, antiproliferative activity; for SI BALB/3T3/ MDA-MB-231: IC50 in normal cell line / IC50 in cancer cell line
Experimental: as §1

[6] = system: BALB/3T3 normal mouse fibroblast cells; assay: In vitro cytotoxicity on normal fibroblasts, BALB/3T3; type: cell-based; conditions: BALB/3T3 normal mouse fibroblasts; read-out: IC50 ± SD, antiproliferative activity
Experimental: as §1

[7] = Spontaneous hydrolysis (chemical stability) in phosphate buffer, spectrophotometric; type: physicochemical; conditions: 0.05 M phosphate buffer pH 7.3, 25 °C, λ 305 nm
Experimental: Spontaneous compound hydrolysis studies were performed following the literature procedure. The kinetics hydrolysis of the compounds was evaluated at 25 °C in 0.05 M phosphate buffer, pH 7.3, by measuring changes in absorbance spectra during incubation using a T60U spectrophotometer (PG Instruments). The absorbance (At) at characteristic absorption maxima for each compound was measured at 10 min intervals until there was no further decrease in absorbance (Aꝏ). Using these measurements, semilogarithmic plots of the dependence of log(At–Aꝏ) on time were prepared, and k’ values were determined from the slope of these plots according to the first order reaction kinetics. Half-conversion times were calculated using equation: t1/2 = 0.693/k’.

[8] = target: T1, human neutrophil elastase (HNE); assay: Kinetic analysis of the inhibition of elastase (Lineweaver–Burk, secondary plots); type: biochemical
Experimental: Kinetic studies were conducted in the presence of different concentrations of substrate (5, 25, 50 and 100 µM) and test compound (in the range of 0–10 µM). The reaction conditions were the same as in the HNE inhibition assay and the reaction was monitored for 10 min at 25 °C with the same Ex an Em wavelengths. By Lineweaver–Burk plots, kinetic values such as Michaelis–Menten constants and maximum velocity were determined. Next, two inhibition constants for inhibitor binding with free enzyme or enzyme–substrate complex (Ki and Kis) were obtained by plotting the secondary plot of the slopes of the determined straight lines or vertical intercept versus inhibitor concentration.

Row | SMILES | IC50 ([1]; Homo sapiens, UMUC3) | IC50 [2] | IC50 ([3]; Homo sapiens) | IC50 ([4]; Homo sapiens) | IC50 ([5]; Homo sapiens) | melting point | k, rate constant of spontaneous hydrolysis [7] | half-life ([7]; read-out: t1/2, half-life for the spontaneous hydrolysis) | Inhibition Type ([8]; Lineweaver–Burk and Dixon analysis) | Ki ([8]; inhibitor binding with free enzyme, secondary plot) | IC50 [6] | SI BALB/3T3/ UMUC-3 [1] | SI BALB/3T3/ A549 [3] | SI BALB/3T3/ MV4-11 [4] | SI BALB/3T3/ MDA-MB-231 [5] | IC50 [1] | IC50 [3] | IC50 [4] | IC50 [5]
1 | O=C1c2ccccc2C(=O)N1CCc1csc(Nc2ccc(Cl)cc2)n1 [Compound 4b, 2-(2-(2-(4-Chlorophenylamino)thiazol-4-yl)ethyl)isoindoline-1,3-dione] | 61.7 ± 1.56 µM | 46.5 ± 4.85 µM | 18.1 ± 0.94 µM | 12.2 ± 4.56 µM | 86.5 ± 10.7 µM |  |  |  |  |  | 66.2 ± 4.17 µM |  |  |  |  |  |  |  | 
2 | Cc1cc(C)cc(Nc2nc(CCN3C(=O)c4ccccc4C3=O)cs2)c1 [Compound 4f, 2-(2-(2-(3,5-Dimethylphenylamino)thiazol-4-yl)ethyl)isoindoline-1,3-dione] | 66.5 ± 9.8 µM | 49.9 ± 0.98 µM | 25.6 ± 3.63 µM | 13.2 ± 4.77 µM | 86.4 ± 12.2 µM |  |  |  |  |  | 101 ± 12.2 µM |  |  |  |  |  |  |  | 
3 | O=C1c2ccccc2C(=O)N1CCc1csc(Nc2c(Cl)cc(Cl)cc2Cl)n1 [Compound 4h, 2-(2-(2-(2,4,6-Trichlorophenylamino)thiazol-4-yl)ethyl)isoindoline-1,3-dione] | 120 ± 36 µM | 16.6 ± 2.06 µM | 57.1 ± 19.4 µM | 48.5 ± 21.4 µM |  | 168 to 169 °C |  |  |  |  |  |  |  |  |  |  |  |  | 
4 | N.N.[Cl][Pt][Cl] [cisplatin, reference compound] |  |  |  |  |  |  |  |  |  |  | 8.47 ± 1.96 µM |  |  |  |  | 1.73 ± 0.17 µM | 5.41 ± 0.6 µM | 1.43 ± 0.4 µM | 15.6 ± 2 µM

Now from value to molecule, other results behind:

Row | IC50 ([1]; Homo sapiens, UMUC3) | IC50 [2] | IC50 ([3]; Homo sapiens) | IC50 ([4]; Homo sapiens) | IC50 ([5]; Homo sapiens) | melting point | k, rate constant of spontaneous hydrolysis [7] | half-life ([7]; read-out: t1/2, half-life for the spontaneous hydrolysis) | Inhibition Type ([8]; Lineweaver–Burk and Dixon analysis) | Ki ([8]; inhibitor binding with free enzyme, secondary plot) | SMILES | IC50 [6] | SI BALB/3T3/ UMUC-3 [1] | SI BALB/3T3/ A549 [3] | SI BALB/3T3/ MV4-11 [4] | SI BALB/3T3/ MDA-MB-231 [5] | IC50 [1] | IC50 [3] | IC50 [4] | IC50 [5]
5 | 82.3 ± 2.18 µM | 29.4 ± 3.13 µM | 50.7 ± 3.32 µM | 59.6 ± 4.63 µM | 110 ± 24.5 µM |  |  |  |  |  | O=C1c2ccccc2C(=O)N1CCc1csc(Nc2ccc(F)cc2)n1 [Compound 4a, 2-(2-(2-(4-Fluorophenylamino)thiazol-4-yl)ethyl)isoindoline-1,3-dione] | 74.2 ± 12.2 µM |  |  |  |  |  |  |  | 
6 | 75.2 ± 6.71 µM | 13 µM | 14 ± 1.56 µM | 46.6 ± 25.4 µM | 77.5 ± 13.7 µM | 170 to 172 °C | 0.018 min⁻¹ | 38.5 min | mixed type I inhibition | 4.54 µM | O=C1c2ccccc2C(=O)N1CCc1csc(Nc2ccc(C(F)(F)F)cc2)n1 [Compound 4c, 2-(2-(2-(4-(Trifluoromethyl)phenylamino)thiazol-4-yl)ethyl)isoindoline-1,3-dione] | 84.9 ± 18.2 µM | 1.13 | 6.07 | 1.82 | 1.10 |  |  |  | 
7 | 46.1 ± 7.28 µM | 22.9 ± 1.59 µM | 23.7 ± 5.23 µM | 8.21 ± 2.37 µM | 48.9 ± 13.2 µM |  |  |  |  |  | COc1cc(Nc2nc(CCN3C(=O)c4ccccc4C3=O)cs2)cc(OC)c1OC [Compound 4d, 2-(2-(2-(3,4,5-Trimethoxyphenylamino)thiazol-4-yl)ethyl)isoindoline-1,3-dione] | 46.8 ± 2.05 µM |  |  |  |  |  |  |  | 
8 | 80 ± 16.2 µM | 15.6 ± 0.16 µM | 41.1 ± 3.13 µM | 33.2 ± 12 µM | 76.4 ± 11.1 µM | 161 to 162 °C |  |  |  |  | O=C1c2ccccc2C(=O)N1CCc1csc(Nc2cccc3ccccc23)n1 [Compound 4e, 2-(2-(2-(Naphthalen-1-ylamino)thiazol-4-yl)ethyl)isoindoline-1,3-dione] | 103 ± 30.7 µM | 1.28 | 2.50 | 3.09 | 1.34 |  |  |  | 
9 | 19.8 ± 1.4 µM | 64.9 ± 7.75 µM |  | 83.3 ± 26.6 µM | 9.66 ± 1.4 µM | > 260 °C |  |  |  |  | NS(=O)(=O)c1ccc(Nc2nc(CCN3C(=O)c4ccccc4C3=O)cs2)cc1 [Compound 4g, 4-(4-(2-(1,3-Dioxoisoindolin-2-yl)ethyl)thiazol-2-ylamino)benzenesulfonamide] | 14.3 ± 2.1 µM | 0.72 |  | 0.17 | 1.49 |  |  |  | 
10 | 74.1 ± 12 µM | 25.6 ± 1.78 µM | 62.9 ± 5.75 µM | 44.5 ± 20.2 µM | 87.7 ± 22 µM |  |  |  |  |  | CC(=O)c1ccc(Nc2nc(CCN3C(=O)c4ccccc4C3=O)cs2)cc1 [Compound 4i, 2-(2-(2-(4-Acetylphenylamino)thiazol-4-yl)ethyl)isoindoline-1,3-dione] | 99 ± 21.2 µM |  |  |  |  |  |  |  | 
11 |  | 5.32 ± 0.68 µM |  |  |  |  |  |  |  |  | C[C@H]1[C@H](C)CC[C@]2(C(=O)O)CC[C@]3(C)C(=CC[C@@H]4[C@@]5(C)CC[C@H](O)C(C)(C)[C@@H]5CC[C@]43C)[C@H]12 [Ursolic acid, reference compound] |  |  |  |  |  |  |  |  | 

— publication PMC9820738, “Spectrofluorimetric and Computational Investigation of New Phthalimide Derivatives towards Human Neutrophil Elastase Inhibition and Antiproliferative Activity” (International Journal of Molecular Sciences, 2022)
